Measured values from ChEMBL document CHEMBL3351474, “Ambidalmines A-E and ambidimerine F: bioactive dihydrobenzophenanthridine alkaloids from Corydalis ambigua var. amurensis” (2014).

What was measured:
Type in all cases: functional
H9c2 [1] = experiment: Cytoprotective activity against ischemia-hypoxia injury in rat H9c2 cells assessed as increase in cell viability at 10 uM by MTT assay relative to control
H9c2 [2] = experiment: Cytoprotective activity against ischemia-hypoxia injury in rat H9c2 cells assessed as increase in cell viability at 0.01 uM by MTT assay relative to control
H9c2 [3] = experiment: Cytoprotective activity against ischemia-hypoxia injury in rat H9c2 cells assessed as increase in cell viability at 0.1 uM by MTT assay relative to control
H9c2 [4] = experiment: Cytoprotective activity against ischemia-hypoxia injury in rat H9c2 cells assessed as increase in cell viability at 1 uM by MTT assay relative to control

Structure (SMILES) | Activity (H9c2 [1]) [%] | Activity (H9c2 [2]) [%] | Activity (H9c2 [3]) [%] | Activity (H9c2 [4]) [%]
COc1cc2c(OC)cc3c(c2cc1OC)N(C)[C@H](CO)c1c2c(cc(OC)c1-3)OCO2 | 36.62 | 41.38 | 46.01 | 50.74
COc1cc2c(OC)cc3c(c2cc1OC)N(C)[C@H](CC(C)=O)c1c2c(cc(OC)c1-3)OCO2 | 29.1 | 42.15 | 40.68 | 37.74
COc1cc2c(OC)cc3c(c2cc1OC)N(C)[C@H](CC(=O)C[C@H]1c2c4c(cc(OC)c2-c2cc(OC)c5cc(OC)c(OC)cc5c2N1C)OCO4)c1c2c(cc(OC)c1-3)OCO2 | 44.75 | – | 50.56 | 44.26
COc1cc2c(OC)cc3c(c2cc1OC)N(C)[C@@H](CC(C)=O)c1c2c(cc(OC)c1-3)OCO2 | 44.27 | 53.88 | 50.09 | 45.29
COc1cc2c(OC)cc3c(c2cc1OC)N(C)[C@@H](CO)c1c2c(cc(OC)c1-3)OCO2 | 32.71 | 47.54 | 54.72 | 49.42
COc1cc2c(OC)cc3c(c2cc1OC)N(C)[C@@H](CC(=O)C[C@H]1c2c4c(cc(OC)c2-c2cc(OC)c5cc(OC)c(OC)cc5c2N1C)OCO4)c1c2c(cc(OC)c1-3)OCO2 | 27.48 | 40.26 | 41.02 | 36.59
COc1cc2c(OC)cc3c(c2cc1OC)N(C)C(CC(=O)CC(C)(C)O)c1c2c(cc(OC)c1-3)OCO2 (racemic) | 32.63 | 41.8 | 41.47 | 44.75
